PubChem BioAssay (NCI)
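Five concentrations, 48 hours, 96-well plates. GI50 is the concentration that inhibits growth by half. At the TGI there is no net growth.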

How the values were obtained:
Assay in all cases: NCI tumour cell line growth inhibition, 48 h
[1] = test system: RXF 393 renal
[2] = test system: SF-268 CNS
[3] = test system: NCI/ADR-RES ovarian
[4] = test system: DU-145 prostate
[5] = test system: TK-10 renal
[6] = test system: SK-MEL-2 melanoma
[7] = test system: NCI-H460 lung
[8] = test system: MOLT-4 leukemia
[9] = test system: HCC-2998 colon
[10] = test system: NCI-H23 lung
[11] = test system: U251 CNS
[12] = test system: SNB-75 CNS
[13] = test system: OVCAR-3 ovarian
[14] = test system: SK-OV-3 ovarian
[15] = test system: HCT-116 colon
[16] = test system: A498 renal
[17] = test system: HCT-15 colon
[18] = test system: HL-60(TB) leukemia
[19] = test system: MDA-MB-231 breast
[20] = test system: EKVX NSCLC
[21] = test system: T-47D breast
[22] = test system: LOX IMVI melanoma
[23] = test system: 786-0 renal
[24] = test system: HS 578T breast
[25] = test system: MDA-MB-435
[26] = test system: SW-620 colon
[27] = test system: COLO 205 colon
[28] = test system: SK-MEL-28 melanoma
[29] = test system: UACC-257 melanoma
[30] = test system: NCI-H522 lung
[31] = test system: MCF7 breast
[32] = test system: CCRF-CEM leukemia
[33] = test system: RPMI-8226 leukemia
[34] = test system: SF-295 CNS
[35] = test system: A549 NSCLC
[36] = test system: K-562 leukemia
[37] = test system: OVCAR-5 ovarian
[38] = test system: PC-3 prostate
[39] = test system: HOP-62 NSCLC
[40] = test system: SK-MEL-5 melanoma
[41] = test system: NCI-H226 lung
[42] = test system: SNB-19 CNS
[43] = test system: OVCAR-4 ovarian
[44] = test system: CAKI-1 renal
[45] = test system: KM12 colon
[46] = test system: SF-539 CNS
[47] = test system: OVCAR-8 ovarian
[48] = test system: M14 melanoma
[49] = test system: SN12C renal
[50] = test system: ACHN renal
[51] = test system: UACC-62 melanoma
[52] = test system: BT-549 breast
[53] = test system: HOP-92 NSCLC
[54] = test system: UO-31 renal
[55] = test system: MALME-3M melanoma
[56] = test system: HT29 colon
[57] = test system: IGROV1 ovarian

CCOc1cc(F)c([N+](=O)[O-])cc1[N+](=O)[O-]
GI50 [1]: 1.89 µM | TGI [1]: 3.37 µM | GI50 [2]: 2.56 µM | TGI [2]: 6.46 µM | GI50 [3]: 2.88 µM | TGI [3]: 8 µM | GI50 [4]: 1.99 µM | TGI [4]: 4.04 µM | GI50 [5]: 2.91 µM | TGI [5]: 10.1 µM | GI50 [6]: 1.89 µM | TGI [6]: 4.4 µM | GI50 [7]: 2.38 µM | TGI [7]: 5.35 µM | GI50 [8]: 2.85 µM | TGI [8]: 8.02 µM | GI50 [9]: 1.87 µM | TGI [9]: 3.31 µM | GI50 [10]: 2.42 µM | TGI [10]: 5.56 µM | GI50 [11]: 1.69 µM | TGI [11]: 3.24 µM | GI50 [12]: 3.58 µM | TGI [12]: 14.1 µM | GI50 [13]: 1.83 µM | TGI [13]: 3.23 µM | GI50 [14]: 14.5 µM | TGI [14]: 27.6 µM | GI50 [15]: 1.64 µM | TGI [15]: 2.99 µM | GI50 [16]: 5.81 µM | TGI [16]: 18.2 µM | GI50 [17]: 2.71 µM | TGI [17]: 9.22 µM | GI50 [18]: 1.77 µM | TGI [18]: 4.81 µM | GI50 [19]: 1.99 µM | TGI [19]: 4.39 µM | GI50 [20]: 1.85 µM | TGI [20]: 4.5 µM | GI50 [21]: 3.31 µM | TGI [21]: 14.7 µM | GI50 [22]: 1.66 µM | TGI [22]: 3.02 µM | GI50 [23]: 3.77 µM | TGI [23]: 13.9 µM | GI50 [24]: 2.48 µM | TGI [24]: 7.97 µM | GI50 [25]: 2.59 µM | TGI [25]: 7.31 µM | GI50 [26]: 1.78 µM | TGI [26]: 3.3 µM | GI50 [27]: 2.03 µM | TGI [27]: 3.88 µM | GI50 [28]: 2.5 µM | TGI [28]: 6.12 µM | GI50 [29]: 1.6 µM | TGI [29]: 3.23 µM | GI50 [30]: 1.5 µM | TGI [30]: 3.24 µM | GI50 [31]: 0.886 µM | TGI [31]: 17.3 µM | GI50 [32]: 2.68 µM | TGI [32]: 6.4 µM | GI50 [33]: 3.43 µM | TGI [33]: 11.2 µM | GI50 [34]: 3.19 µM | TGI [34]: 12.8 µM | GI50 [35]: 3.68 µM | TGI [35]: 14.9 µM | GI50 [36]: 3.01 µM | TGI [36]: 57 µM | GI50 [37]: 1.8 µM | TGI [37]: 4.34 µM | GI50 [38]: 4.63 µM | TGI [38]: 18 µM | GI50 [39]: 9.35 µM | TGI [39]: 21.6 µM | GI50 [40]: 2.99 µM | TGI [40]: 8.4 µM | GI50 [41]: 2.81 µM | TGI [41]: 8.48 µM | GI50 [42]: 3.82 µM | TGI [42]: 13.3 µM | GI50 [43]: 1.92 µM | TGI [43]: 3.48 µM | GI50 [44]: 1.19 µM | TGI [44]: 2.42 µM | GI50 [45]: 1.81 µM | TGI [45]: 3.49 µM | GI50 [46]: 1.85 µM | TGI [46]: 3.85 µM | GI50 [47]: 2.57 µM | TGI [47]: 6.64 µM | GI50 [48]: 1.67 µM | TGI [48]: 3.03 µM | GI50 [49]: 2 µM | TGI [49]: 4.32 µM | GI50 [50]: 2.02 µM | TGI [50]: 4.81 µM | GI50 [51]: 1.73 µM | TGI [51]: 3.75 µM | GI50 [52]: 3.12 µM | TGI [52]: 11.2 µM

CCOC(=O)C1=C(C)NC(=O)NC1c1ccc(N(CCCl)CCCl)cc1Cl (stereo not drawn)
TGI [1]: 30.8 µM | TGI [2]: 28.8 µM | TGI [3]: 30.3 µM | TGI [53]: 25.7 µM | TGI [54]: 27.3 µM | TGI [4]: 32.1 µM | TGI [5]: 33.6 µM | TGI [6]: 29.8 µM | TGI [7]: 25.6 µM | TGI [10]: 32.7 µM | TGI [11]: 30.2 µM | TGI [12]: 28.1 µM | TGI [13]: 28.8 µM | TGI [14]: 33.6 µM | TGI [15]: 27.4 µM | TGI [16]: 29.4 µM | TGI [17]: 30.8 µM | TGI [18]: 13.4 µM | TGI [19]: 26.5 µM | TGI [20]: 45.8 µM | TGI [21]: 19.5 µM | TGI [22]: 29.4 µM | TGI [23]: 29.2 µM | TGI [24]: 36.1 µM | TGI [25]: 33.1 µM | TGI [26]: 31.8 µM | TGI [27]: 32.6 µM | TGI [28]: 31.4 µM | TGI [29]: 29.5 µM | TGI [30]: 26.4 µM | TGI [31]: 26.5 µM | TGI [34]: 29.2 µM | TGI [35]: 26.6 µM | TGI [55]: 28.1 µM | TGI [36]: 24.3 µM | TGI [37]: 31.8 µM | TGI [56]: 29.5 µM | TGI [38]: 28.5 µM | TGI [39]: 28.5 µM | TGI [40]: 27.8 µM | TGI [57]: 28.4 µM | TGI [41]: 28.8 µM | TGI [42]: 31.2 µM | TGI [43]: 33.1 µM | TGI [44]: 30.9 µM | TGI [45]: 33.9 µM | TGI [46]: 30.9 µM | TGI [47]: 25.6 µM | TGI [48]: 29.2 µM | TGI [49]: 29.8 µM | TGI [50]: 27.5 µM | TGI [51]: 22.4 µM | TGI [52]: 28.9 µM

O=C(Cc1n[nH]c(=O)c2ccccc12)OCc1c(Cl)cccc1Cl
GI50 [1]: 24.1 µM | TGI [1]: 68.3 µM | GI50 [2]: 9.21 µM | TGI [2]: > 100 µM | GI50 [3]: 93.6 µM | TGI [3]: > 100 µM | GI50 [53]: > 100 µM | TGI [53]: > 100 µM | GI50 [54]: > 100 µM | TGI [54]: > 100 µM | GI50 [4]: 53.4 µM | TGI [4]: > 100 µM | GI50 [5]: 41 µM | TGI [5]: > 100 µM | GI50 [6]: > 100 µM | TGI [6]: > 100 µM | GI50 [7]: 2.39 µM | TGI [7]: > 100 µM | GI50 [8]: 4.07 µM | TGI [8]: > 100 µM | GI50 [9]: 50.4 µM | TGI [9]: > 100 µM | GI50 [10]: > 100 µM | TGI [10]: > 100 µM | GI50 [11]: 8.39 µM | TGI [11]: > 100 µM | GI50 [12]: 25.8 µM | TGI [12]: > 100 µM | GI50 [13]: 41.9 µM | TGI [13]: > 100 µM | GI50 [14]: 12.8 µM | TGI [14]: > 100 µM | GI50 [15]: 3.64 µM | TGI [15]: > 100 µM | GI50 [16]: > 100 µM | TGI [16]: > 100 µM | GI50 [17]: 1.74 µM | TGI [17]: > 100 µM | GI50 [18]: 6.53 µM | TGI [18]: > 100 µM | GI50 [19]: 69.8 µM | TGI [19]: > 100 µM | GI50 [20]: > 100 µM | TGI [20]: > 100 µM | GI50 [21]: 24.6 µM | TGI [21]: > 100 µM | GI50 [22]: 5.16 µM | TGI [22]: > 100 µM | GI50 [23]: 15.1 µM | TGI [23]: > 100 µM | GI50 [24]: 17.4 µM | TGI [24]: > 100 µM | GI50 [25]: > 100 µM | TGI [25]: > 100 µM | GI50 [26]: 49.8 µM | TGI [26]: > 100 µM | GI50 [27]: 5.63 µM | TGI [27]: > 100 µM | GI50 [28]: > 100 µM | TGI [28]: > 100 µM | GI50 [29]: > 100 µM | TGI [29]: > 100 µM | GI50 [30]: > 100 µM | TGI [30]: > 100 µM | GI50 [31]: > 100 µM | TGI [31]: > 100 µM | GI50 [33]: 82.4 µM | TGI [33]: > 100 µM | GI50 [35]: > 100 µM | TGI [35]: > 100 µM | GI50 [55]: 48.5 µM | TGI [55]: > 100 µM | GI50 [36]: 4.19 µM | TGI [36]: > 100 µM | GI50 [37]: > 100 µM | TGI [37]: > 100 µM | GI50 [56]: 15.6 µM | TGI [56]: > 100 µM | GI50 [40]: 4.18 µM | TGI [40]: > 100 µM | GI50 [57]: > 100 µM | TGI [57]: > 100 µM | GI50 [41]: 9.97 µM | TGI [41]: > 100 µM | GI50 [42]: 15.6 µM | TGI [42]: > 100 µM | GI50 [43]: > 100 µM | TGI [43]: > 100 µM | GI50 [44]: 26.2 µM | TGI [44]: > 100 µM | GI50 [45]: 24.2 µM | TGI [45]: > 100 µM | GI50 [46]: 10.1 µM | TGI [46]: > 100 µM | GI50 [47]: 36.5 µM | TGI [47]: > 100 µM | GI50 [48]: > 100 µM | TGI [48]: > 100 µM | GI50 [49]: > 100 µM | TGI [49]: > 100 µM | GI50 [50]: 82 µM | TGI [50]: > 100 µM | GI50 [51]: 8.55 µM | TGI [51]: > 100 µM | GI50 [52]: 16.3 µM | TGI [52]: > 100 µM
